Laboratory results as given in paper PMC8280128, “Antioxidant and food additive BHA prevents TNF cytotoxicity by acting as a direct RIPK1 inhibitor” (Cell Death & Disease, 2021).

Target: T1, RIPK1 (Homo sapiens, UniProt Q13546)
T1 construct: AA 1–479, GST fusion
T1 sequence (Q13546 1-479): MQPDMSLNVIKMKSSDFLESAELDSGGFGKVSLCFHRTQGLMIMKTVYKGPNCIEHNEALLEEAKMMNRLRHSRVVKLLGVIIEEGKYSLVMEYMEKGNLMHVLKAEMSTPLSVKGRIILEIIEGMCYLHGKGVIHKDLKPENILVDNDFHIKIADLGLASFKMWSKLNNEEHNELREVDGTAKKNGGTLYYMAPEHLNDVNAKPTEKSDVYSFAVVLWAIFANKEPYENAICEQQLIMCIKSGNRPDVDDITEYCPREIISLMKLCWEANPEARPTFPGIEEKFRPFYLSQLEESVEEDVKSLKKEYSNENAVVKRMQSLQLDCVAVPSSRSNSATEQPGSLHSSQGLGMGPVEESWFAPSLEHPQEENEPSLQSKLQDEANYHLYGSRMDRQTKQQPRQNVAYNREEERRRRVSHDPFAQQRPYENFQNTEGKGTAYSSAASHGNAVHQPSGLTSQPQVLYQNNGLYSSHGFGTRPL
Experiment: ADP-Glo in vitro kinase assay with recombinant RIPK1 ([…] reduction at […])
Format: biochemical

inhibition at 100 µM: ~60%
SMILES: CC(C)(C)c1cc(O)ccc1O [TBHQ]
